Assay results published in patent publication US20110077198A1, “COMPOSITIONS AND METHODS FOR INHIBITING THE ACTIVATION OF DSRNA-DEPENDENT PROTEIN KINASE AND TUMOR GROWTH INHIBITION” (priority 2007, published 2011).

Key:
MAC16 cells = test: Cell growth assay, MAC16 cells in vitro; format: cell-based, mouse
PKR [1] = target: T1, PKR (Mus musculus, UniProt Q03963); test: Western blot of phospho and total PKR in MAC16 cells; format: cell-based
T1 construct: endogenous in cells; host or cells: MAC16 and MAC13 murine colon adenocarcinoma cells in culture
T1 sequence (Q03963 1-515): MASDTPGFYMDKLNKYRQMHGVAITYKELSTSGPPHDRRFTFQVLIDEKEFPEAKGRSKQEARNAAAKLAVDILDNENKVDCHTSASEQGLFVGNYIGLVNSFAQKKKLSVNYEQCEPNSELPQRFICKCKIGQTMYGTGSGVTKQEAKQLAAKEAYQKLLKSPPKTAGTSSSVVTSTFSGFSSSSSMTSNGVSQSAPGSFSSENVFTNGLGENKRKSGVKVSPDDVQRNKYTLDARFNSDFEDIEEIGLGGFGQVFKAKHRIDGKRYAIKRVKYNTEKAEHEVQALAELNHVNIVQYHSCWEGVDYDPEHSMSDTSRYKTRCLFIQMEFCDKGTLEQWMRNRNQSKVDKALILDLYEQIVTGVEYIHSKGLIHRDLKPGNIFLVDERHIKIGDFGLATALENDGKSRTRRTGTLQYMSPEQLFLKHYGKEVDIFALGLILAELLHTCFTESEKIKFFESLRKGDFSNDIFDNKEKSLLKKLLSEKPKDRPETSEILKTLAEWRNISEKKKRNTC
Method: (§1) Samples (approximately 10 mg) of tumor were homogenised in 500 μl of PhosphoSafe™ Extraction Reagent and centrifuged at 15,000 g for 15 min at 4° C. Portions of cytosolic protein (10 μg) were resolved on 10% sodium dodecyl sulphate/polyacrylamide gels (SDS/PAGE; 6% for eIF2α). The resolved proteins were transferred onto 0.45 μm nitrocellulose membranes, which had been blocked with 5% Marvel in Tris-buffered saline, pH 7.5, at 4° C. overnight. Membranes were then washed for 15 min in 0.5% Tween-buffered saline, or TBS-Tween, prior to the addition of primary antibodies. The primary antibodies were used at a dilution of 1:1000, except for phospho eIF2α, which was used at 1:500. The primary antibodies were washed off the membranes for 15 min, with buffer changes every 5 min, using 0.1% TBS-Tween. The secondary antibodies were used at a dilution of 1:1000, and were washed off after 45 min. Development was by ECL, and films were developed for 3-6 min. Blots were scanned by a densitometer to quantify differences.

PKR [2] = target: T1, PKR; test: Western blot of phospho and total PKR in MAC13 cells; format: cell-based
Method: as §1

[3] = Toxicity in mice treated with the PKR inhibitor; format: in vivo, mouse; conditions: inhibition of autophosphorylation of PKR in mice
Excerpt: (§2) Both the MAC16 and MAC13 tumors were passaged in vivo in NMRI mice by transplanting fragments subcutaneously (s.c.) into the flank, as described in Bibby et al., J. Natl. Cancer Inst., 78(3):539-546, 1987. To maintain cachexia, the MAC16 tumor for passage was selected from donor animals with established weight loss, and treatment was initiated when the average weight loss was 5%. Animals were randomized into groups of six to receive solvent (DMSO (dimethylsulfoxide): PBS (phosphate-buffered saline); 1:20) or the PKR inhibitor at 1 and 5 mg/kg administered daily by s.c. injection. Animals were terminated by cervical dislocation when the body weight loss reached 20%. All animal experiments followed a strict protocol approved by the British Home Office, and the ethical guidelines that were followed meet the standards required by the UKCCR guidelines (Workman, P. et al., Br. J. Cancer, 77:1-10, 1998).

MAC13 cells = test: Cell growth assay, MAC13 cells in vitro; format: cell-based, mouse; conditions: concentration up to 1000 nM (FIG. 2)
Method: The MAC16 and MAC13 tumors were propagated in vitro in RPMI 1640 medium containing 10% FCS at 37° C., under an atmosphere of 5% CO2 in air. For cell growth assays, cells were seeded at either 0.5×10^5 cells per well (MAC13) or 1×10^5 cells per well (MAC16) in 24 well multi-well dishes and allowed to accumulate for 24 h prior to drug addition. Cell number was determined three days later, whilst the cells were in exponential growth.

MAC16 tumor = conditions: cited from earlier work; for tumor growth in mice bearing the MAC16 tumor: literature reports; for loss of body weight of mice bearing MAC-16 tumor: Eley et al., Biochem J. 2007
20S proteasome = test: Western blot of 20S proteasome α-subunits in MAC16 cells; format: cell-based, mouse; conditions: MAC16 cells (FIG. 5C)
Method: as §1

eIF2α = test: Western blot of phospho and total eIF2α in MAC16 tumor from treated mice; format: in vivo, mouse; conditions: mice bearing MAC16 tumor
Excerpt: as §2
(§3) Samples (approximately 10 mg) of tumor were homogenised in 500 μl of PhosphoSafe™ Extraction Reagent and centrifuged at 15,000 g for 15 min at 4° C. Portions of cytosolic protein (10 μg) were resolved on 10% sodium dodecyl sulphate/polyacrylamide gels (SDS/PAGE; 6% for eIF2α). […] Blots were scanned by a densitometer to quantify differences.

PKR [4] = target: T1, PKR; test: Western blot of phospho and total PKR in MAC16 tumor from treated mice; format: in vivo; conditions: mice bearing MAC16 tumor
Excerpt: as §2, §3

NF-κB = test: EMSA of nuclear NF-κB in MAC16 tumor from treated mice; format: in vivo, mouse; conditions: mice bearing MAC16 tumor, 5 mg/kg for 4 days (FIG. 7B)
Excerpt: as §2
DNA-binding proteins were isolated from tumor samples by hypotonic lysis, followed by high salt extraction of nuclei according to the method of Andrews and Faller (Nucleic Acids Res., 19(9):2499, 1991). EMSA was carried out using a Panomics EMSA “gel shift” kit, according to the manufacturer's instructions

[5] = tested on: human pancreatic cancer cells; conditions: in vitro, literature reports; cited from earlier work

O=c1[nH]cc(F)c(=O)[nH]1 [5FU, 5-fluorouracil]
growth of MAC16 cells, agent alone (MAC16 cells; 5FU alone at concentrations between 1 and 10 μM (FIG. 8)): significant inhibition

O=C1Nc2ccc3ncsc3c2/C1=C/c1c[nH]cn1 [PKR inhibitor, 8-[1-(1H-imidazol-4-yl)meth-(Z)-ylidene]-6,8-dihydro-thiazol[5,4-e]indol-7-one]
concentration of maximum inhibition of cell growth (MAC16 cells; MAC16 in vitro, cell number after three days, higher concentrations less effective (FIG. 2)): 200 nM
effect on 5FU-induced inhibition of growth of MAC16 cells (MAC16 cells; PKR inhibitor at 100 or 200 nM combined with 5FU 1-10 μM (FIG. 8)): significantly potentiated
effect on gemcitabine-induced inhibition of growth of MAC16 cells (MAC16 cells; PKR inhibitor at 100 or 200 nM combined with gemcitabine (FIG. 8)): potentiated
effect on total PKR in the cell (PKR [1]; MAC16 cells): In neither cell line was there an effect
concentration maximally effective in inhibiting PKR (PKR [1]; increasing concentrations have a reduced inhibitory effect): 200 nM
effect on total PKR in the cell (PKR [2]): In neither cell line was there an effect
effect on autophosphorylation of PKR (PKR [2]; low levels of autophosphorylation (FIG. 5B)): no effect
toxicity in mice [3]: did not produce toxicity
effect on growth of the MAC13 tumor in vitro (MAC13 cells): no effect
muscle atrophy in mice bearing the MAC16 tumor (MAC16 tumor; Eley et al, 2007): attenuated
tumor growth in mice bearing the MAC16 tumor (MAC16 tumor): inhibited
expression of the 20S proteasome (20S proteasome): attenuated
total level of eIF2α in MAC16 tumor (eIF2α; 1 or 5 mg/kg daily s.c.): without an effect
increased phosphorylation of eIF2α in MAC16 tumor (eIF2α; 1 or 5 mg/kg daily s.c. (FIG. 4B)): complete attenuation
total level of PKR in MAC16 tumor (PKR [4]; 1 or 5 mg/kg daily s.c.): without an effect
increased phosphorylation of PKR in MAC16 tumor (PKR [4]; 1 or 5 mg/kg daily s.c. (FIG. 4A)): complete attenuation
constitutive activation of NF-κB in the tumor (NF-κB): attenuated

CC(C)C[C@H](NC(=O)[C@H](Cc1ccccc1)NC(=O)c1cnccn1)B(O)O [PS-341]
growth / proliferation of human pancreatic cancer cells [5]: block proliferation

COc1cc(/C=C/C(=O)CC(=O)/C=C/c2ccc(O)c(OC)c2)ccc1O [curcumin]
growth / proliferation of human pancreatic cancer cells [5]: inhibits

Nc1ccn([C@@H]2O[C@H](CO)[C@@H](O)C2(F)F)c(=O)n1 [gemcitabine, Gemcitabine]
growth of MAC16 cells, agent alone (MAC16 cells; gemcitabine alone, 3.8-38 μM (FIG. 8)): inhibition of growth

CC(C)C[C@H](N)C(=O)O [leucine]
loss of body weight of mice bearing MAC-16 tumor (MAC16 tumor): significantly suppress

Oc1ccc(C=Cc2cc(O)cc(O)c2)cc1 [resveratrol]
tumor growth in mice bearing the MAC16 tumor (MAC16 tumor): inhibited

CC(C)[C@H](N)C(=O)O [valine]
loss of body weight of mice bearing MAC-16 tumor (MAC16 tumor): significantly suppress
